Data on 3 molecules can be found in US20060241130A1, “Anti-inflammatory compositions and uses thereof” (priority 2003, published 2006).

Series [1] relates to ovalbumin sensitized Brown Norway rats. The series is described as follows: Asthma treatment model II: Penh (barometric plethysmography) after repeated OVA challenge. As to conditions: 125 ppm in breathing atmosphere day 14 to day 21, measured day 21, 5 minutes after allergen challenge, mean ± standard error. The series is classed as in vivo, rat. As for the experimental part:
(§1) Asthma treatment model II: Asthma was induced on day 0 in three experimental groups of 10 animals each, by sensitization with ovalbumin (OVA) and aluminum hydroxide, as previously described (Du et al., 1992. Am. Rev. Resp. Dis. 146:1037-1041). Sensitization to the model antigen ovalbumin (OVA) was carried out by subcutaneous injection of 1 mg OVA (Sigma, St. Louis, Mo.) and 200 mg of aluminum hydroxide (AlumInject; Pierce Chemical, Rockford, Ill.) in 0.9 percent (w/w) saline in a total volume of 1 ml, and intraperitoneal injection of 1 ml saline containing 6 billion heat killed Bordetella pertussis cells (Pasteur Marieux, France). A fourth group of 10 animals was not sensitized and was used as the naive control group. The three groups of sensitized rats as well as the group of naive animals were challenged every other day from day 14 until day 21 with repeated 10 minute long inhalations of OVA using an ultrasonic nebulizer inhaler (LS 230 Systam Villeneuve Sur Lot, France). Throughout the experiments, the rats were kept unrestrained in a 20 liters box.

Series [2] shares this test system. Briefly: Asthma treatment model II: blinded histopathological scoring of lung sections (H&E). It is filed as in vivo, rat. Here is the method: as §1
In model II, all rats were anaesthetized on day 21 with pentothal and sacrificed by bleeding from the abdominal aorta. Lungs were removed and inflated with 4 percent buffered formaldehyde overlayed with 20 cm water. The lungs were sliced longitudinally and embedded in paraffin. Histologic sections 5 microns thick were cut and stained with hematoxylin and eosin. The morphological changes were evaluated by light microscopy by a pathologist who was blinded to the treatment groups. The intensity of the peribronchiolar and perivascular cellular infiltration was assessed semi-quantitatively on a 0-3 scale as follows: 0=no or practically no inflammatory cells; I=a narrow rim of inflammatory cells surrounding most of the bronchioles/blood vessels, best visualized under high power; 2=a rim of inflammatory cells 3-4 cells thick, surrounding most of the bronchioles/blood vessels; 3=a prominent rim of inflammatory cells, 5 or more cells thick, surrounding most of the bronchioles/blood vessels. Bronchiolar constriction was also assessed on a semi-quantitative scale ranging over 0-3 grades (0=none; 1=mild; 2=moderate; 3=marked). The histologic sections included bronchioles (defined as airways lined by mucosa and lacking cartilage) and distal airways (alveolar ducts and sacs). The features examined included peribronchiolar and perivascular inflammation, morphological evidence of bronchoconstriction (papillary infolding of the bronchiolar mucosa) and granulomatous response in the pulmonary parenchyma.

The nature of series [3]: Control: effect of hydrogen peroxide on cromolyn sodium mesophases. It is filed as physicochemical. The conditions noted are these: hydrogen peroxide (30 percent), 8 hours at room temperature. As for the experimental part: (§2) Analysis of the effect of ozone on cromolyn sodium mesophases: Six solutions of cromolyn sodium in PBS (7-12 percent) were placed in narrow (5 mm) NMR tubes and ozone (10 percent in oxygen) was bubbled for 5 minutes through the solutions using a flexible Teflon tube. […] Control experiments were carried out with hydrogen peroxide (30 percent) and sodium hypochlorite.

Series [4] in a line: Control: effect of sodium hypochlorite on cromolyn sodium mesophases. The series is classed as physicochemical. As to conditions: any concentration of cromolyn sodium, 8 hours at room temperature. As for the experimental part: as §2
Series [5] in a line: Cromolyn sodium lyotropic mesophase formation (polarizing microscope). As to conditions: phosphate buffered saline pH 7.4, 5 to 12 percent (w/w) tested. The series is classed as physicochemical. Here is the method:
Preparation of cromolyn sodium lyotropic mesophases: Solutions of cromolyn sodium (white powder, Vitamed Inc., Israel) were dissolved in phosphate buffered saline [50 mM phosphate, 100 mM NaCl (pH 7.4)] at eight different concentrations between 5 and 12 percent (w/w).

Series [6] can be described thus: Effect of ozone on cromolyn sodium mesophases. The series is classed as physicochemical. The conditions noted are these: 7-12 percent in PBS, ozone (10 percent in oxygen) bubbled for 5 minutes. Here is the method: as §2
The subject of another series is asthmatic human patients. The series is described as follows: Double-blind cross-over study in asthmatic children, adenosine bronchial provocation test. The series is classed as in vivo. The conditions noted are these: about 80 ppm nightly for two weeks.
Where [7] appears, read: 0-3 scale, 125 ppm inhalation day 14-21, OVA sensitized, OVA challenged rats.
The mark [8] stands for this setting: H&E, representative treated rat.

Description for asthmatic human patients: Patients: Eleven patients were recruited from children to the pediatric pulmonary clinic, Rambam Medical Center, Haifa. Inclusion criteria: age: 6-11 years; diagnosis of asthma by ATS criteria; ability to perform spirometry consistently; asthma severity classified as “mild persistent” as per the GINA workshop report; no anti-inflammatory medication, including antihistamines, taken for at least 2 weeks prior to enrollment. Exclusion criteria: presence of other chronic conditions; emergency room visit in the past 3 months; respiratory infection in the past month; steroids or other anti-inflammatory medication taken within 2 weeks prior to treatment; and bronchodilators, theophylline preparations or monteleukast taken in the 24 hours prior to spirometry.
Study design: A double-blind cross-over study format was used to evaluate the effect of monoterpenes on asthma. The study included four phases, each lasting two weeks. Following enrollment, baseline spirometry was performed and inclusion/exclusion was verified. The patients then filled in a diary card for two weeks. […]
Adenosine bronchial provocation test (BPT): Bronchial provocation tests were performed by inhalation of nebulized adenosine 5′-monophosphate (adenosine; Sigma chemical company, St. Louis, Mo., USA) solutions in doubling doses. […] The best of three efforts were recorded. […]

With `CC12CCC(CC1)C(C)(C)O2` [eucalyptol], the Penh values in series [1] was found to be 2.25±0.12. For the same molecule, the “morphological evidence of bronchoconstriction score” value in series [2] (0-3 grades, 125 ppm inhalation day 14-21, OVA sensitized, OVA challenged rats) came out at 2.3±0.21. Moreover, in series [2] (setting [7]), the “peribronchial inflammatory cell infiltration score” value came to 2.2±0.29 and the “perivascular inflammatory cell infiltration score” value is 2.5±0.27. For the same molecule, in series [2] (125 ppm inhalation day 14-21, OVA sensitized, OVA challenged rats), the “granulomas (granulomatous response) score” value is given as 1.8±0.42. In series [2] (setting [8]), the “morphologic bronchoconstriction in representative lung section (FIG. 12)” value is listed as “shows morphologic evidence of bronchoconstriction”; the “peribronchiolar inflammation in representative lung section (FIG. 12)” value was “peribronchiolar inflammation and a lymphoid follicle”.

`O=C(O)c1cc(=O)c2c(OCC(O)COc3cccc4oc(C(=O)O)cc(=O)c34)cccc2o1` [cromolyn sodium]: in series [3], the “birefringence after hydrogen peroxide, 7 and 8 percent cromolyn sodium” value was “loss of birefringence was observed”; the “birefringence after hydrogen peroxide, more concentrated cromolyn sodium” value is “No effect”. The birefringence after hypochlorite entry in series [4] is listed as “No effect”. Also, the “minimal concentration that exhibited birefringence” value in series [5] is 6%. In series [6], the birefringence after ozone entry was “Loss of birefringence in all tubes” and the “conversion to oxidized products (1H-NMR)” value is “complete conversion”.

In the case of `C=C(C)[C@H]1CC=C(C)CC1` [limonene, d-limonene], the “improvement in severely asthmatic patients as compared to moderately asthmatic patients” value in the series with asthmatic human patients (adenosine challenge) is on record as “approximately one order of magnitude improvement”. The “asthmatics with asthmatic stress significantly and specifically relieved (adenosine challenge)” value with asthmatic human patients (children 6-11 years, compared to cineole negative control) is 6/11.
